{"source": "patent US4359459A", "about": "“O-α-D-Multigalactopyranosyl-O-α-D-multiglucopyranosyl-O-β- D” (American Cyanamid Company, priority 1981, dated 1982)", "key": {"[1]": {"tested_on": "hereditary angioneurotic edema", "conditions": "literature reports; cited from earlier work"}, "complement system": {"tested_on": "complement system", "conditions": "Br. J. Exp. Pathol. 33: 327 (1952); cited from earlier work"}, "shunt pathway": {"tested_on": "shunt pathway", "assay": "Test Code 036 (C-Shunt inhibitor), lysis of fragile human erythrocytes in autologous serum, cobra venom factor", "format": "biochemical", "conditions": "in vitro; twofold serial dilution assay, higher well number indicates higher activity", "text": "(§1) An active inhibitor protects C2 from C1 and C4; (ii) Test Code 035 (C3-C9 inhibitor)--This test determines the ability of the late components of human complement (C3-C9) to lyse EAC 142 in the presence of appropriate dilutions of the test compound. An active inhibitor protects EAC 142 from lysis by human C3-C9; (iii) Test Code 036 (C-Shunt inhibitor)--In this test human erythrocytes rendered fragile are lysed in autologous serum via the shunt pathway activated by cobra venom factor in the presence of appropriate dilutions of the test compound. Inhibition of the shunt pathway results in failure of lysis; (iv) Cap 50 Test-- Here, appropriate amounts of the test compound are added to a pool of guinea pig serum in vitro, after which the undiluted serum capillary tube assay of U.S. Pat. No. 3,876,376 is run. The concentration of compound inhibiting 50% is reported; and (v) Guinea Pig Intraperitoneal Test (GPIP)--Guinea Pigs weighing about 300 g are dosed intraperitoneally (i.p.) with 200 mg/kg of the test compound dissolved in saline and adjusted to pH 7-8. […] Percent inhibition is calculated by comparison with simultaneous controls. […]"}, "[2]": {"tested_on": "late components of human complement (C3-C9)", "assay": "Test Code 035 (C3-C9 inhibitor), lysis of EAC 142", "format": "biochemical", "set-up": "key: N = Negative", "conditions": "in vitro; twofold serial dilution assay", "text": "as §1"}, "activated human C1": {"target": "T1, activated human C1 (Homo sapiens, UniProt P09871)", "T1 sequence (P09871 438-688 limits assumed)": "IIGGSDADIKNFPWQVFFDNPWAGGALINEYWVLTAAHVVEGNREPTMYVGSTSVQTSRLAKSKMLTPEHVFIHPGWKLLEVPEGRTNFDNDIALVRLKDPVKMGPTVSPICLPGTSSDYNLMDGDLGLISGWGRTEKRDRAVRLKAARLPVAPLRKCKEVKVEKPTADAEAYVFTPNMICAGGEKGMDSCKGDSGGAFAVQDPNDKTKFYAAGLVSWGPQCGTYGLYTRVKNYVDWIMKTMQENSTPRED", "T1 sequence (P09871 16-437 limits assumed)": "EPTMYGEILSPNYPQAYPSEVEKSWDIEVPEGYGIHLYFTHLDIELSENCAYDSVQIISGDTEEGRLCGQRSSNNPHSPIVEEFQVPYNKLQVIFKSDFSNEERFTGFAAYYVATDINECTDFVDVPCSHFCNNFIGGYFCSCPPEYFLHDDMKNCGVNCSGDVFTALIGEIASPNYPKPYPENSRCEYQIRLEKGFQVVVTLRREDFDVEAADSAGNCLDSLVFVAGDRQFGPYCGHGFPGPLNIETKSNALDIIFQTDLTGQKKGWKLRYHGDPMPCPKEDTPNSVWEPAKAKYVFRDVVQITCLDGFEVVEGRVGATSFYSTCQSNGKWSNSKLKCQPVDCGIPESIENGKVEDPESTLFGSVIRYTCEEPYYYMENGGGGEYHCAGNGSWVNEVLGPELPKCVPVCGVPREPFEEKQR", "assay": "Test Code 026 (C1 inhibitor)", "format": "biochemical", "conditions": "in vitro; twofold serial dilution assay, higher well number indicates higher activity", "text": "as §1"}, "human serum": {"tested_on": "human serum", "conditions": "both in vitro and in vivo, judged by reduction in total hemolytic complement activity; cited from earlier work"}, "complement activity": {"tested_on": "complement activity", "assay": "Guinea Pig Intraperitoneal Test (GPIP)", "format": "in vivo, Guinea Pigs", "conditions": "200 mg/kg i.p.", "text": "An active inhibitor protects C2 from C1 and C4; (ii) Test Code 035 (C3-C9 inhibitor)--This test determines the ability of the late components of human complement (C3-C9) to lyse EAC 142 in the presence of appropriate dilutions of the test compound. An active inhibitor protects EAC 142 from lysis by human C3-C9; (iii) Test Code 036 (C-Shunt inhibitor)--In this test human erythrocytes rendered fragile are lysed in autologous serum via the shunt pathway activated by cobra venom factor in the presence of appropriate dilutions of the test compound. Inhibition of the shunt pathway results in failure of lysis; (iv) Cap 50 Test-- Here, appropriate amounts of the test compound are added to a pool of guinea pig serum in vitro, after which the undiluted serum capillary tube assay of U.S. Pat. No. 3,876,376 is run. The concentration of compound inhibiting 50% is reported; and (v) Guinea Pig Intraperitoneal Test (GPIP)--Guinea Pigs weighing about 300 g are dosed intraperitoneally (i.p.) with 200 mg/kg of the test compound dissolved in saline and adjusted to pH 7-8. Approximately 0.4 ml blood samples, taken by orbital sinus puncture 30 minutes and one hour after injections, are collected directly into centrifuge tubes; 5 ml blood samples, taken by decapitation 2 hours after injection, are collected directly into diSPo® beakers. The samples are allowed to clot, centrifuged, and the resultant sera are assayed for complement activity using the capillary complement assay. Percent inhibition is calculated by comparison with simultaneous controls. The results of the GPIP appear in Table I together with results of Test Code 026, 035, 036 and Cap 50."}}, "note": "Counter-ions that a name gives are not always drawn.", "data": [{"molecule": "NC[C@H]1CC[C@H](C(=O)O)CC1", "note": "[tranexamic acid]", "values": [{"measurement": "treatment of hereditary angioneurotic edema", "setting": "[1]", "value": "used with success"}]}, {"molecule": "Nc1ccc2cc(S(=O)(=O)[O-])cc(O)c2c1N=Nc1ccc(NC(=O)Nc2ccc(N=Nc3c(N)ccc4cc(S(=O)(=O)[O-])cc(O)c34)c(S(=O)(=O)[O-])c2)cc1S(=O)(=O)[O-].[Na+].[Na+].[Na+].[Na+]", "note": "[chlorazol fast pink, 3,3'-ureylenebis[6-(2-amino-8-hydroxy-6-sulfo-1-naphthylazo)benzenesulfonic acid], tetrasodium salt]", "values": [{"measurement": "anti-complementary effect", "setting": "complement system", "value": "anti-complementary effect"}]}, {"molecule": "O=S(=O)(O)OCC1OC(OCC2OC(COS(=O)(=O)O)(OC3OC(COC4OC(COC5OC(COS(=O)(=O)O)C(OS(=O)(=O)O)C(OS(=O)(=O)O)C5OS(=O)(=O)O)C(OS(=O)(=O)O)C(OS(=O)(=O)O)C4OS(=O)(=O)O)C(OS(=O)(=O)O)C(OS(=O)(=O)O)C3OS(=O)(=O)O)C(OS(=O)(=O)O)C2OS(=O)(=O)O)C(OS(=O)(=O)O)C(OS(=O)(=O)O)C1OC1OC(COS(=O)(=O)O)C(OC2OC(COS(=O)(=O)O)C(OS(=O)(=O)O)C(OS(=O)(=O)O)C2OS(=O)(=O)O)C(OS(=O)(=O)O)C1OS(=O)(=O)O", "note": "[drawing 11, O-α-D-Galactopyranosyl(1→6)-O-α-D-galactopyranosyl(1→6)-O-α-D-glucopyranosyl(1→2)-O-β-D-fructofuranosyl(1→6)-O-α-D-glucopyranosyl(1→4)-O-α-D-glucopyranosyl-α-D-glucopyranoside, tricosakis (H-sulfate), tricosasalt with trimethylamine]", "values": [{"measurement": "C-Shunt Inhibition 036* Wells", "setting": "shunt pathway", "value": "+5 Wells"}, {"measurement": "C-Late 035* Wells", "setting": "[2]", "value": "N"}, {"measurement": "Cl 026* Wells", "setting": "activated human C1", "value": "+9 Wells"}]}, {"molecule": "heparin", "values": [{"measurement": "anti-complementary effect", "setting": "complement system", "value": "anti-complementary effect"}]}, {"molecule": "pentosanpolysulfoester", "values": [{"measurement": "anticomplementary activity on human serum", "setting": "human serum", "value": "anticomplementary activity"}]}, {"molecule": "NCCCCCC(=O)O", "note": "[epsilon-aminocaproic acid]", "values": [{"measurement": "treatment of hereditary angioneurotic edema", "setting": "[1]", "value": "used with success"}]}, {"molecule": "O=S(=O)(O)OCC1OC(OCC2OC(COS(=O)(=O)O)(OC3OC(COC4OC(COC5OC(COS(=O)(=O)O)C(OS(=O)(=O)O)C(OS(=O)(=O)O)C5OS(=O)(=O)O)C(OS(=O)(=O)O)C(OS(=O)(=O)O)C4OS(=O)(=O)O)C(OS(=O)(=O)O)C(OS(=O)(=O)O)C3OS(=O)(=O)O)C(OS(=O)(=O)O)C2OS(=O)(=O)O)C(OS(=O)(=O)O)C(OS(=O)(=O)O)C1OC1OC(COS(=O)(=O)O)C(OC2OC(COS(=O)(=O)O)C(OS(=O)(=O)O)C(OS(=O)(=O)O)C2OS(=O)(=O)O)C(OS(=O)(=O)O)C1OS(=O)(=O)O", "note": "[drawing 12, O-α-D-Galactopyranosyl(1→6)-O-α-D-galactopyranosyl(1.fwd arw.6)-O-α-D-glucopyranosyl(1→2)-O-β-D-fructofuranosyl(1→6)-O-α-D-glucopyranosyl(1→4)-O-α-D-glucopyranosyl-α-D-glucopyranoside, tricosakis (H-sulfate), tricosasodium salt]", "values": [{"measurement": "C-Shunt Inhibition 036* Wells", "setting": "shunt pathway", "value": "+5 Wells"}, {"measurement": "C-Late 035* Wells", "setting": "[2]", "value": "N"}, {"measurement": "In vivo Activity (Guinea Pigs) % Inhibition Intraperitoneal, 30 minutes", "setting": "complement activity; serum 30 minutes after injection", "value": 63, "unit": "%"}, {"measurement": "In vivo Activity (Guinea Pigs) % Inhibition Intraperitoneal, 60 minutes", "setting": "complement activity; serum 60 minutes after injection", "value": 61, "unit": "%"}, {"measurement": "In vivo Activity (Guinea Pigs) % Inhibition Intraperitoneal, 120 minutes", "setting": "complement activity; serum 120 minutes after injection", "value": 67, "unit": "%"}, {"measurement": "Cl 026* Wells", "setting": "activated human C1", "value": "+9 Wells"}]}]}
